Experimental data taken from patent US8222247B2, “Modulators of glucocorticoid receptor, AP-1, and/or NF-kappabeta activity and use thereof” (Bristol-Myers Squibb Company, priority 2006, dated 2012).

Tests used:
[1] = target: T1, human glucocorticoid receptor (Homo sapiens, UniProt P04150); test: Glucocorticoid Receptor Binding Assay (I), fluorescence polarization competitor kit; settings: purified human recombinant full-length GR, Fluormone GS Red
T1 construct: purified human recombinant full-length glucocorticoid receptor (2 nM); purchased Invitrogen Part #2893
T1 sequence (P04150 1-777): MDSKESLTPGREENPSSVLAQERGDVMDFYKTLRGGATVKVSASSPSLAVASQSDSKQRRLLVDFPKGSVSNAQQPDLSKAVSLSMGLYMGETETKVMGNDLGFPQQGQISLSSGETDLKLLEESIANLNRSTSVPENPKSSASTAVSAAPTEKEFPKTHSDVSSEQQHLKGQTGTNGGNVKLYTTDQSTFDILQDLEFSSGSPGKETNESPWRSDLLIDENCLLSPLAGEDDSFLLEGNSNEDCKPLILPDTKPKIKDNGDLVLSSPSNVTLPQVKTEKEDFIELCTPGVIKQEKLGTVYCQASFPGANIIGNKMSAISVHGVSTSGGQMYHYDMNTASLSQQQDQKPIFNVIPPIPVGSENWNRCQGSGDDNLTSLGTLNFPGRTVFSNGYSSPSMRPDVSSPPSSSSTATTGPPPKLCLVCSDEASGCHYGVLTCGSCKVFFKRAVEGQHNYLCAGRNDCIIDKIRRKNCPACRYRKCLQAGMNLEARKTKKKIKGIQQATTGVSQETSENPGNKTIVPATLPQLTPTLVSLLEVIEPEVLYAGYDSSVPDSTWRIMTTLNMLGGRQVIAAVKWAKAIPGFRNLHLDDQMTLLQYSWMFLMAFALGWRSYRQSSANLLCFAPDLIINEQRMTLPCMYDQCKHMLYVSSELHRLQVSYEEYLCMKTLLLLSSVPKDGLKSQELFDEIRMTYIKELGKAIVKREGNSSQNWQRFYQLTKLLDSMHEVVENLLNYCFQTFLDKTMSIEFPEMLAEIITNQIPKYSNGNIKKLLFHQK
Description: Glucocorticoid Receptor Binding Assay (I)^a
In order to assess the affinity of test compounds for the human glucocorticoid receptor, a commercially available kit was used (Glucocorticoid Receptor Competitor Assay Kit, Invitrogen Part #2893). Briefly, purified human recombinant full-length glucocorticoid receptor (2 nM) was mixed with fluorescently labeled glucocorticoid (1 nM Fluormone GS Red) in the presence or absence of test compound. After two hour incubation at room temperature in the dark, the fluorescence polarization (FP) of the samples was measured. The FP of a mixture of receptor, fluorescent probe (i.e. Fluormone GS Red) and 5 μM dexamethasone represented background fluorescence or 100% inhibition, whereas, the FP of the mixture without dexamethasone (but in the presence of vehicle) was taken to be 100% binding. The percentage inhibition of test compounds were then compared to the sample with 5 μM dexamethasone and expressed as % relative binding activity with dexamethasone being 100% and no inhibition is 0%. Test compounds were analyzed in the concentration range from 8.5E-05 μM to 5 μM.

[2] = test system: AP-1 induced transcriptional activity; test: Cellular Transrepressional Assay (AP-1 luciferase reporter in A549 cell, PMA activated); assay type: cell-based; settings: Homo sapiens, A549, 7 h, pAP-1-Luc; for Emax: maximum inhibition, PMA, read-out: AP-1 Max % inh (Cellular Transrepression Assay); for EC50: 10 ng/ml PMA, 7 hours, read-out: AP-1 EC50, nM (Cellular Transrepression Assay)
Procedure, shortened: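 A549 cells stably carrying a 7×AP-1-site luciferase reporter were stimulated with 10 ng/ml PMA for 7 h alongside test molecules (0.1 nM to 40 μM). Luminescence read 10 min after luciferase reagent; repression expressed as % decrease of PMA-only signal, EC50 from curve fitting at 50% reduction of AP-1 activity.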

Ki [1] | EC50 [2] | Structure (SMILES) | Emax [2]
2.79 nM | – | CC(C(=O)Nc1nncs1)C(c1cccc(F)c1)c1ccc(Br)s1 (mixture of isomers) [Example 93, 3-(5-bromo-2-thienyl)-3-(3-fluorophenyl)-2-methyl-N-1,3,4-thiadiazol-2-ylpropanamide] | –
3.2 nM | – | CC(C(=O)Nc1nncs1)C(c1ccccc1)c1ccc(Br)s1 (mixture of isomers) [Example 132, 3-(5-bromo-2-thienyl)-2-methyl-3-phenyl-N-1,3,4-thiadiazol-2-ylpropanamide] | –
5.06 nM | – | CC(C)(C(=O)Nc1nncs1)C(c1ccccc1)c1ccc(Br)s1 (single isomer, unassigned) [Example 84, 3-(5-bromo-2-thienyl)-2,2-dimethyl-3-phenyl-N-1,3,4-thiadiazol-2-ylpropanamide] | –
2.74 nM | – | CC(C)(C(=O)Nc1nncs1)C(c1ccccc1)c1ccc(Br)s1 (single isomer, unassigned) [Example 85, 3-(5-bromo-2-thienyl)-2,2-dimethyl-3-phenyl-N-1,3,4-thiadiazol-2-ylpropanamide] | –
1.06 nM | – | CC(C(=O)Nc1nncs1)C(c1ccccc1)c1ccc(Br)s1 (single isomer, unassigned) [Example 134, 3-(5-bromo-2-thienyl)-2-methyl-3-phenyl-N-1,3,4-thiadiazol-2-ylpropanamide] | –
1.25 nM | – | CC(C(=O)Nc1nncs1)C(c1ccccc1)c1ccc(Br)s1 (single isomer, unassigned) [Example 135, 3-(5-bromo-2-thienyl)-2-methyl-3-phenyl-N-1,3,4-thiadiazol-2-ylpropanamide] | –
3.66 nM | – | CC(C)(C(=O)Nc1nncs1)C(c1ccccc1)c1ccc(Br)s1 (centres unmarked) [Example 3, -(5-bromo-2-thienyl)-2,2-dimethyl-3-phenyl-N-1,3,4-thiadiazol-2-ylpropanamide] | –
6.97 nM | – | CC(C)(C(=O)Nc1nccs1)C(c1ccccc1)c1ccc(Br)s1 (centres unmarked) [Example 4, 3-(5-bromo-2-thienyl)-2,2-dimethyl-3-phenyl-N-1,3-thiazol-2-ylpropanamide] | –
2.93 nM | – | CC(C)(C(=O)Nc1nncs1)C(c1cc(F)cc(F)c1)c1ccc(Br)s1 (centres unmarked) [Example 19, 3-(5-bromo-2-thienyl)-3-(3,5-difluorophenyl)-2,2-dimethyl-N-1,3,4-thiadiazol-2-ylpropanamide] | –
7.69 nM | – | CC(C)Oc1ccc(-c2ccc(C(c3ccccc3)C(C)(C)C(=O)Nc3nncs3)cn2)cc1F (centres unmarked) [Example 29, 3-(6-(3-fluoro-4-isopropoxyphenyl)-3-pyridinyl)-2,2-dimethyl-3-phenyl-N-1,3,4-thiadiazol-2-ylpropanamide] | –
5.75 nM | – | COc1ccc(-c2ccc(C(c3cccc(F)c3)C(C)(C)C(=O)Nc3nncs3)s2)cc1 (centres unmarked) [Example 35, 3-(3-fluorophenyl)-3-(5-(4-methoxyphenyl)-2-thienyl)-2,2-dimethyl-N-1,3,4-thiadiazol-2-ylpropanamide] | –
0.89 nM | – | CN(C)C(=O)c1ccc(-c2ccc(C(c3ccccc3)C(C)(C)C(=O)Nc3nncs3)s2)cc1 (centres unmarked) [Example 44, 4-(5-(2,2-dimethyl-3-oxo-1-phenyl-3-(1,3,4-thiadiazol-2-ylamino)propyl)-2-thienyl)-N,N-dimethylbenzamide] | –

The remaining lines, values behind:

Structure (SMILES) | Ki [1] | EC50 [2] | Emax [2]
CC(C(=O)Nc1nncs1)C(c1ccccc1)c1ccc(-c2ccc(C(=O)N(C)C)cc2)s1 (single isomer, unassigned) [Example 138, N,N-dimethyl-4-(5-(2-methyl-3-oxo-1-phenyl-3-(1,3,4-thiadiazol-2-ylamino)propyl)-2-thienyl)benzamide] | 360 nM | – | –
CC(C(=O)Nc1nncs1)C(c1ccccc1)c1ccc(-c2ccc(C(=O)N(C)C)cc2)s1 (single isomer, unassigned) [Example 139, N,N-dimethyl-4-(5-(2-methyl-3-oxo-1-phenyl-3-(1,3,4-thiadiazol-2-ylamino)propyl)-2-thienyl)benzamide] | 259 nM | – | –
C[C@@H](C(=O)Nc1nncs1)[C@H](c1ccccc1)c1ccc(-c2ccc(C(=O)N3CCOCC3)cc2)s1 (stereo in doubt) [Example 152, (2R,3R)-2-methyl-3-(5-(4-(4-morpholinylcarbonyl)phenyl)-2-thienyl)-3-phenyl-N-1,3,4-thiadiazol-2-ylpropanamide] | 4.85 nM | – | –
CCN(C)C(=O)c1ccc(-c2ccc([C@@H](c3ccccc3)[C@@H](C)C(=O)Nc3nncs3)s2)cc1 (stereo in doubt) [Example 154, N-ethyl-N-methyl-4-(5-((1R,2R)-2-methyl-3-oxo-1-phenyl-3-(1,3,4-thiadiazol-2-ylamino)propyl)-2-thienyl)benzamide] | 2.15 nM | – | –
CN(C)C(=O)c1ccc(-c2ccc(C(c3cccc(F)c3)C(C)(C)C(=O)Nc3nncs3)s2)cc1 (centres unmarked) [Example 36, 4-(5-(1-(3-fluorophenyl)-2,2-dimethyl-3-oxo-3-(1,3,4-thiadiazol-2-ylamino)propyl)-2-thienyl)-N,N-dimethylbenzamide] | 1.46 nM | – | –
CC(C)Oc1ccc(-c2ccc(C(c3cccc(F)c3)C(C)(C)C(=O)Nc3nncs3)s2)cc1F (centres unmarked) [Example 37, 3-(5-(3-fluoro-4-isopropoxyphenyl)-2-thienyl)-3-(3-fluorophenyl)-2,2-dimethyl-N-1,3,4-thiadiazol-2-ylpropanamide] | 53.5 nM | – | –
C[C@@H](C(=O)Nc1nncs1)[C@H](c1cccc(F)c1)c1ccc(-c2ccc(C(=O)N3CCCC3)cc2)s1 [Example 118, (2R,3R)-3-(3-fluorophenyl)-2-methyl-3-(5-(4-(1-pyrrolidinylcarbonyl)phenyl)-2-thienyl)-N-1,3,4-thiadiazol-2-ylpropanamide] | – | 61.6 nM | 55.3%
CCN(C)C(=O)c1ccc(-c2ccc([C@@H](c3cccc(F)c3)[C@@H](C)C(=O)Nc3nncs3)s2)cc1Cl [Example 119, 2-chloro-N-ethyl-4-(5-((1R,2R)-1-(3-fluorophenyl)-2-methyl-3-oxo-3-(1,3,4-thiadiazol-2-ylamino)propyl)-2-thienyl)-N-methylbenzamide] | – | 22.7 nM | 47.6%
CCN(C)C(=O)c1ccc(-c2ccc([C@@H](c3cccc(F)c3)[C@@H](C)C(=O)Nc3nncs3)s2)cc1F [Example 120, N-ethyl-2-fluoro-4-(5-((1R,2R)-1-(3-fluorophenyl)-2-methyl-3-oxo-3-(1,3,4-thiadiazol-2-ylamino)propyl)-2-thienyl)-N-methylbenzamide] | – | 22.9 nM | 42.9%
C[C@@H](C(=O)Nc1nncs1)[C@H](c1cccc(F)c1)c1ccc(-c2ccc(C(=O)N3CCC(F)(F)C3)cc2)s1 [Example 121, (2R,3R)-3-(5-(4-((3,3-difluoro-1-pyrrolidinyl)carbonyl)phenyl)-2-thienyl)-3-(3-fluorophenyl)-2-methyl-N-1,3,4-thiadiazol-2-ylpropanamide] | – | 66.8 nM | 28.7%
C[C@@H](C(=O)Nc1nncs1)[C@H](c1ccccc1)c1ccc(-c2ccc(C(=O)N(C)C)cc2)s1 [Example 140, N,N-dimethyl-4-(5-((1R,2R)-2-methyl-3-oxo-1-phenyl-3-(1,3,4-thiadiazol-2-ylamino)propyl)-2-thienyl)benzamide] | – | 15.2 nM | 54.1%
CCN(C)C(=O)c1ccc(-c2ccc([C@@H](c3cccc(F)c3)[C@@H](C)C(=O)Nc3nnc(C)s3)s2)cc1 [Example 141, N-Ethyl-4-(5-((1R,2R)-1-(3-fluorophenyl)-2-methyl-3-((5-methyl-1,3,4-thiadiazol-2-yl)amino)-3-oxopropyl)-2-thienyl)-N-methylbenzamide] | – | 62.2 nM | 46%
CCN(C)C(=O)c1ccc(-c2ccc([C@@H](c3cccc(F)c3)[C@@H](C)C(=O)Nc3nccs3)s2)cc1 [Example 143, N-ethyl-4-(5-((1R,2R)-1-(3-fluorophenyl)-2-methyl-3-oxo-3-(1,3-thiazol-2-ylamino)propyl)-2-thienyl)-N-methylbenzamide] | – | 16.9 nM | 63.6%
